In patent US20260137706A1, “METHODS OF TREATING INFLAMMATORY DISEASES” (INTERLINE THERAPEUTICS, INC., priority 2023, published 2026):

Columns and labels:
[1] = biological target: T1, binding of His-XIAP(BIR2)-avi fusion protein to GST-RIPK2 fusion protein (RIPK2/XIAP) (Homo sapiens, UniProt O43353); assay: RIPK2-XIAP binding competition PPI assay (TR-FRET); conditions: RIPK2/XIAP binding competition PPI assay; for Emax: Amax, read-out: PPI Amax bin; for IC50: read-out: PPI IC50 bin
T1 construct: made in house; host or cells: baculovirus infected Sf9 cells
Outline: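 Compounds (in DMSO, 100-fold stock) incubated 120 min at 23 °C with 1 nM GST-RIPK2 (aa 1-310) and 25 nM His-XIAP(BIR2 aa 152-231)-avi, plus anti-His-XL665 and anti-GST-Tb, in pH 7.5 Tris buffer. Read-out: 665/520 nm emission ratio. Normalized to no-inhibitor (0%) and 50 nM GSK583 (−100%); Amax binned A–D.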

[2] = biological target: T2, GST-RIPK2 fusion protein (human RIPK2, amino acids 1-310) (Homo sapiens, UniProt O43353); assay: RIPK2 binding competition assay (TR-FRET, Tracer 199 displacement); conditions: 10 nM Tracer 199, 1 nM GST-RIPK2, read-out: RIPK2 IC50
T2 construct: made in house; host or cells: baculovirus infected Sf9 cells
Outline: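 GST-RIPK2 (human aa 1-310, Sf9-expressed; final 1 nM) with Tracer 199 (final 10 nM) and Tb-anti-GST (final 0.5 nM) in Tris pH 7.5 buffer, 45 min at 22 °C. TR-FRET 665/620 nm ratio after 337 nm excitation; normalized to no-inhibitor (0%) and no-protein (−100%), giving IC50.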

[3] = system: NF-κB pathway (SEAP) in THP1-Dual cells; assay: THP-1 Dual cell SEAP assay (L18-MDP stimulated); format: cell-based; conditions: Homo sapiens, THP1-Dual, read-out: NF-κB THP1 IC50 bin
Outline: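 THP1-Dual cells (~25,000/well) were preincubated 30 min with serially diluted compounds, then stimulated with 10 ng/mL L18-MDP (final) for 20-24 h at 37 °C. Supernatant SEAP was read with QUANTI-Blue at OD 620-655 nm after 2 h. IC50 came from non-linear fits of % inhibition versus DMSO/L18-MDP controls after media-blank subtraction.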

T2 sequence (O43353 1-310): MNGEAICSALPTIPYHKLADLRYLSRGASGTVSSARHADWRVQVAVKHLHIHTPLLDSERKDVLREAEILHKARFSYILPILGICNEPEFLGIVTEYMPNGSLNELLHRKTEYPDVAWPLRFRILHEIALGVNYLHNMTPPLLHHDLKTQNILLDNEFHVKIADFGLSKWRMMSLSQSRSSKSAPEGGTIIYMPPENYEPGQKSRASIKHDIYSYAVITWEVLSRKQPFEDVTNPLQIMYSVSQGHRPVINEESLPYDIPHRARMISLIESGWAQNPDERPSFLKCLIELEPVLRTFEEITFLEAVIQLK
T1 sequence (O43353 1-310 limits assumed): as the sequence (O43353 1-310) above

Row | SMILES | Emax [1] [%] | IC50 [1] [nM] | IC50 [2] [nM] | IC50 [3] [nM]
1 | COc1cc2ncc(-c3cnc4c(c3)CC(=O)N4)n2cc1S(=O)(=O)C(C)(C)C [Example 83, 5-(6-(tert-butylsulfonyl)-7-methoxyimidazo[1,2-a]pyridin-3-yl)-1,3-dihydro-2H-pyrrolo[2,3-b]pyridin-2-one] | < 30 | > 20 | > 20 | > 1000
2 | COc1cc2ncc(-c3cnc4c(c3)OCCN4)n2cc1S(=O)(=O)C(C)(C)C [Example 84, 7-(6-(tert-butylsulfonyl)-7-methoxyimidazo[1,2-a]pyridin-3-yl)-3,4-dihydro-2H-pyrido[3,2-b][1,4]oxazine] | 55 to 80 | > 20 | > 20 | > 1000
3 | COc1cc2ncc(-c3cnc4c(c3)CCCN4)n2cc1S(=O)(=O)C(C)(C)C [Example 85, 6-(6-(tert-butylsulfonyl)-7-methoxyimidazo[1,2-a]pyridin-3-yl)-1,2,3,4-tetrahydro-1,8-naphthyridine] | 30 to 55 | > 20 | > 20 | > 1000
4 | COc1cc2ncc(-c3ccc4c(c3)OCC4O)n2cc1S(=O)(=O)C(C)(C)C (centres unmarked) [Example 86, 6-(6-(tert-butylsulfonyl)-7-methoxyimidazo[1,2-a]pyridin-3-yl)-2,3-dihydrobenzofuran-3-ol] | < 30 | > 20 | > 20 | > 1000
5 | COc1cc2ncc(-c3cnc4c(c3)OCC4O)n2cc1S(=O)(=O)C(C)(C)C (centres unmarked) [Example 87, 6-(6-(tert-butylsulfonyl)-7-methoxyimidazo[1,2-a]pyridin-3-yl)-2,3-dihydrofuro[3,2-b]pyridin-3-ol] | 30 to 55 | > 20 | > 20 | > 1000
6 | COc1cc2ncc(-c3cnn(-c4ccccc4)c3F)n2cc1S(=O)(=O)C(C)(C)C [Example 88, 6-(tert-butylsulfonyl)-3-(5-fluoro-1-phenyl-1H-pyrazol-4-yl)-7-methoxyimidazo[1,2-a]pyridine] | < 30 | > 20 | > 20 | > 1000
7 | COc1cc2ncc(-c3ccc4nc(N)ccc4c3)n2cc1S(=O)(=O)C(C)(C)C [Example 89, 6-(6-(tert-butylsulfonyl)-7-methoxyimidazo[1,2-a]pyridin-3-yl)quinolin-2-amine] | < 30 | > 20 | 2.5 to 20 | 250 to 1000
8 | COc1cc2ncc(-c3ccc4c(N)nccc4c3)n2cc1S(=O)(=O)C(C)(C)C [Example 90, 6-(6-(tert-butylsulfonyl)-7-methoxyimidazo[1,2-a]pyridin-3-yl)isoquinolin-1-amine] | < 30 | > 20 | 2.5 to 20 | 250 to 1000
9 | COc1cc2ncc(-c3cnc4nc(N)ccc4c3)n2cc1S(=O)(=O)C(C)(C)C [Example 91, 6-(6-(tert-butylsulfonyl)-7-methoxyimidazo[1,2-a]pyridin-3-yl)-1,8-naphthyridin-2-amine] | 30 to 55 | > 20 | > 20 | > 1000
10 | COc1cc2ncc(-c3cnc4cc(N)ccc4c3)n2cc1S(=O)(=O)C(C)(C)C [Example 92, 3-(6-(tert-butylsulfonyl)-7-methoxyimidazo[1,2-a]pyridin-3-yl)quinolin-7-amine] | 30 to 55 | > 20 | > 20 | > 1000
11 | COc1cc2ncc(-c3ccc4c(N)noc4c3)n2cc1S(=O)(=O)C(C)(C)C [Example 93, 6-(6-(tert-butylsulfonyl)-7-methoxyimidazo[1,2-a]pyridin-3-yl)benzo[d]isoxazol-3-amine] | < 30 | > 20 | 2.5 to 20 | 250 to 1000
12 | COc1cc2ncc(-c3ccn4nccc4c3)n2cc1S(=O)(=O)C(C)(C)C [Example 94, 6-(tert-butylsulfonyl)-7-methoxy-3-(pyrazolo[1,5-a]pyridin-5-yl)imidazo[1,2-a]pyridine] | < 30 | > 20 | 2.5 to 20 | 250 to 1000
13 | COc1cc2ncc(-c3ccc4nc(N)sc4c3)n2cc1S(=O)(=O)C(C)(C)C [Example 95, 6-(6-(tert-butylsulfonyl)-7-methoxyimidazo[1,2-a]pyridin-3-yl)benzo[d]thiazol-2-amine] | < 30 | > 20 | 2.5 to 20 | > 1000
14 | COc1cc2ncc(-c3ccc4nc(N)oc4c3)n2cc1S(=O)(=O)C(C)(C)C [Example 96, 6-(6-(tert-butylsulfonyl)-7-methoxyimidazo[1,2-a]pyridin-3-yl)benzo[d]oxazol-2-amine] | < 30 | > 20 | 2.5 to 20 | 250 to 1000
15 | COc1cc2ncc(-c3cc(C)c4nn(C)cc4c3)n2cc1S(=O)(=O)C(C)(C)C [Example 97, 5-(6-(tert-butylsulfonyl)-7-methoxyimidazo[1,2-a]pyridin-3-yl)-2,7-dimethyl-2H-indazole] | < 30 | > 20 | 2.5 to 20 | > 1000
16 | COc1cc2ncc(-c3ccc4nc(N)[nH]c4c3)n2cc1S(=O)(=O)C(C)(C)C [Example 98, 6-(6-(tert-butylsulfonyl)-7-methoxyimidazo[1,2-a]pyridin-3-yl)-1H-benzo[d]imidazol-2-amine] | < 30 | > 20 | 2.5 to 20 | > 1000
17 | COc1cc2ncc(-c3cn(C)c4ncccc34)n2cc1S(=O)(=O)C(C)(C)C [Example 99, 6-(tert-butylsulfonyl)-7-methoxy-3-(1-methyl-1H-pyrrolo[2,3-b]pyridin-3-yl)imidazo[1,2-a]pyridine] | < 30 | > 20 | 2.5 to 20 | > 1000
18 | COc1cc2ncc(-c3ccc4nc(N)n(C)c4c3)n2cc1S(=O)(=O)C(C)(C)C [Example 100, 6-(6-(tert-butylsulfonyl)-7-methoxyimidazo[1,2-a]pyridin-3-yl)-1-methyl-1H-benzo[d]imidazol-2-amine] | < 30 | > 20 | 2.5 to 20 | > 1000
19 | COc1cc2ncc(-c3ccc4c(c3)c(C)nn4C)n2cc1S(=O)(=O)C(C)(C)C [Example 101, 5-(6-(tert-butylsulfonyl)-7-methoxyimidazo[1,2-a]pyridin-3-yl)-1,3-dimethyl-1H-indazole] | < 30 | > 20 | 2.5 to 20 | > 1000
20 | COc1cc2ncc(-c3ccc4c(N)nn(C)c4c3)n2cc1S(=O)(=O)C(C)(C)C [Example 102, 6-(6-(tert-butylsulfonyl)-7-methoxyimidazo[1,2-a]pyridin-3-yl)-1-methyl-1H-indazol-3-amine] | < 30 | > 20 | > 20 | > 1000
21 | COc1cc2ncc(-c3ccc4c(N)n[nH]c4c3)n2cc1S(=O)(=O)C(C)(C)C [Example 103, 6-(6-(tert-butylsulfonyl)-7-methoxyimidazo[1,2-a]pyridin-3-yl)-1H-indazol-3-amine] | < 30 | > 20 | > 20 | > 1000
22 | COc1cc2ncc(-c3ccc4oc(N)nc4c3)n2cc1S(=O)(=O)C(C)(C)C [Example 104, 5-(6-(tert-butylsulfonyl)-7-methoxyimidazo[1,2-a]pyridin-3-yl)benzo[d]oxazol-2-amine] | 30 to 55 | > 20 | > 20 | > 1000
23 | COc1cc2ncc(-c3ccc4sc(N)nc4c3)n2cc1S(=O)(=O)C(C)(C)C [Example 105, 5-(6-(tert-butylsulfonyl)-7-methoxyimidazo[1,2-a]pyridin-3-yl)benzo[d]thiazol-2-amine] | 30 to 55 | > 20 | > 20 | > 1000
24 | COc1cc2ncc(-c3ccc4cnn(C)c4c3)n2cc1S(=O)(=O)C(C)(C)C [Example 106, 6-(6-(tert-butylsulfonyl)-7-methoxyimidazo[1,2-a]pyridin-3-yl)-1-methyl-1H-indazole] | < 30 | > 20 | > 20 | > 1000
25 | COc1cc2ncc(-c3cnn4c(C)c(C)ccc34)n2cc1S(=O)(=O)C(C)(C)C [Example 107, 6-(tert-butylsulfonyl)-3-(6,7-dimethylpyrazolo[1,5-a]pyridin-3-yl)-7-methoxyimidazo[1,2-a]pyridine] | 55 to 80 | > 20 | > 20 | > 1000
26 | COc1cc2ncc(-c3ccc4c(C)nn(C)c4c3)n2cc1S(=O)(=O)C(C)(C)C [Example 108, 6-(6-(tert-butylsulfonyl)-7-methoxyimidazo[1,2-a]pyridin-3-yl)-1,3-dimethyl-1H-indazole] | < 30 | > 20 | > 20 | > 1000
